# Entries after “also recorded” stand apart in the source; their conditions may differ. Like-named read-outs stand apart in the source and are kept apart here.
# Assays:
# in vitro = assay: in vitro
# Description: The synthesised derivatives were screened for their abilities to cross the BBB using the parallel artificial membrane permeability assay (PAMPA) because this ability is a critical developmental requirement for any drug targeting neurodegenerative disorders or depression.
# [1] = PAMPA-BBB reported values; cited from earlier work
# normal VERO cells = assay: MTT cytotoxicity assay; conditions: for IC50: Chlorocebus sabaeus, Vero, read-out: IC50 in normal VERO cells
# AChE [2] = biological target: T1, AChE (Electrophorus electricus, UniProt O42275); assay: Reversibility of AChE inhibition by dialysis; assay type: biochemical; conditions: for Reversibility of AChE inhibition: dialysis; for AChE residual activity, dialysed (AD) / AChE residual activity, undialyzed (AU): inhibitor ~2 × IC50; for AChE residual activity, dialysed (AD): after 6 h dialysis; for AChE residual activity, undialyzed (AU): before dialysis
# T1 sequence (O42275 24-633): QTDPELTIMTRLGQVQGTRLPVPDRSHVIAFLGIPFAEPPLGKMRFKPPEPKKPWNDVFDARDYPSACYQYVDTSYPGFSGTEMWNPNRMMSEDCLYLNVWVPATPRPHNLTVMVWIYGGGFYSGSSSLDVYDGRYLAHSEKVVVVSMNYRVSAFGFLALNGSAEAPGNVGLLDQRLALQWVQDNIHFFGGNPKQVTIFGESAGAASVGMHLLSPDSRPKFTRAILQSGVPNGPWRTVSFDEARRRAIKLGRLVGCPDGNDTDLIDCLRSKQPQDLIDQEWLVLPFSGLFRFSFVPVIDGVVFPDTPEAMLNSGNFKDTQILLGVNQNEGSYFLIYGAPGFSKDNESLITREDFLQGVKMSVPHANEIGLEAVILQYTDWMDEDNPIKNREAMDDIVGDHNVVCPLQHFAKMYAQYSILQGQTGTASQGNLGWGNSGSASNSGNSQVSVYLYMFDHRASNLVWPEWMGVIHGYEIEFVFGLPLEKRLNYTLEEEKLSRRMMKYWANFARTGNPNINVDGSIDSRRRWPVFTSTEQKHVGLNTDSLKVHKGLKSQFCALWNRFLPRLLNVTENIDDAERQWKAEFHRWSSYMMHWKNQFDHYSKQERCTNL
# AChE [3] = biological target: T1, AChE; assay: AChE inhibition assay (modified Ellman method, ATCI); assay type: biochemical; conditions: 15 min pre-incubation, mean ± SE
# AChE [4] = biological target: T1, AChE; assay: Kinetics of AChE inhibition (Lineweaver-Burk and secondary plots); assay type: biochemical
# Method: (§1) MAO-A, MAO-B, AChE and BChE activities were measured after exposure to inhibitors at a concentration of 10 µM. […] IC50 values were determined by measuring the residual enzyme activities. […] Ki values and inhibitor types were determined by kinetic testing, as previously described. […] Lineweaver–Burk plots and their secondary plots were used to determine Ki values and inhibitor types.
# Hela cells = assay: Total ROS assay in H2O2-treated cells; assay type: cell-based, human; conditions: for ROS levels in H2O2-treated Hela cells: 40 µg/mL compound, 100 μg/mL H2O2, fluorescent image analysis
# Description: ROS are considered to be the radicals primarily responsible for the neuronal death observed in various neurodegenerative disorders.
# Figure 7.
# BChE = BChE (Equus caballus, UniProt P81908); assay: biochemical; conditions: for remaining activity at 10 µM: read-out: Residual activities (%) BChE (10 µM)
# BChE, sequence (P81908 whole entry): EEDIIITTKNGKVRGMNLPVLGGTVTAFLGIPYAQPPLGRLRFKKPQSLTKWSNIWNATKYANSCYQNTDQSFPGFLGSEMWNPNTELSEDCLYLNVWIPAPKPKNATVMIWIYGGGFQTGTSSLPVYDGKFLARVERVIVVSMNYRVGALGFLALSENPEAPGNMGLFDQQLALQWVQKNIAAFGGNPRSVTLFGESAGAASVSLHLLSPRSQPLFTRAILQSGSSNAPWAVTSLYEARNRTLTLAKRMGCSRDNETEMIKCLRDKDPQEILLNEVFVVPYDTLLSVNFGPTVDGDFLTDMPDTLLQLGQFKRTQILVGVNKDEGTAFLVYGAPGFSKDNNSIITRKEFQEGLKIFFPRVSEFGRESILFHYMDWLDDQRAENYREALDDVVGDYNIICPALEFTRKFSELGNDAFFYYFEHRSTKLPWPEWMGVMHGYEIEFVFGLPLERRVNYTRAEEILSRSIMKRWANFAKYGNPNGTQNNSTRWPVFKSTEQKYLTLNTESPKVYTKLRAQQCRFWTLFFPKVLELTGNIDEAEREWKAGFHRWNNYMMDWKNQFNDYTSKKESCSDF
# Method: Colour development was performed using 0.5 mM 5,5′-dithiobis (2-nitrobenzoic acid) (DTNB), which reacts with thiocholine (a product of ATCI by AChE or of BTCI by BChE) to produce 5-thio 2-nitrobenzoic acid.
# as §1
# recombinant human MAO-A = biological target: T2, recombinant human MAO-A (Homo sapiens, UniProt P21397); assay: MAO-A inhibition assay (kynuramine substrate); assay type: biochemical; conditions: for remaining activity at 10 µM: read-out: Residual activities (%) MAO-A (10 µM)
# T2 sequence (P21397 1-527): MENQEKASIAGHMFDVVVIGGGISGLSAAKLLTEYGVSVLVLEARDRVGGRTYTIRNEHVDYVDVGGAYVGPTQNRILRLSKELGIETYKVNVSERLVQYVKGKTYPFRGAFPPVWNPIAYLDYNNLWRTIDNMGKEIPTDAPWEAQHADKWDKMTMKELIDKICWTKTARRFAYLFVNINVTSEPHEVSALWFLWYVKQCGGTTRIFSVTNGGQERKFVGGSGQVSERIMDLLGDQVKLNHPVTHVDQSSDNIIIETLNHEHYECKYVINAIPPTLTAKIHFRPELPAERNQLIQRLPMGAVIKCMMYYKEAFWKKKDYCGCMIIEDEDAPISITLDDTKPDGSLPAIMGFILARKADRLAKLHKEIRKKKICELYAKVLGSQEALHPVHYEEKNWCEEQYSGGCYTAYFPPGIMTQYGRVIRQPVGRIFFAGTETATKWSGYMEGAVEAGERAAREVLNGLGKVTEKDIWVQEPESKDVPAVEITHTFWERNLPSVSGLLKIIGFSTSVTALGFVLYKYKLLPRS
# Method: as §1
# MAO-B [5] = biological target: T3, MAO-B (Homo sapiens, UniProt P27338); assay: MAO-B inhibition assay (benzylamine substrate); assay type: biochemical; conditions: for remaining activity at 1 µM: read-out: Residual activities (%) MAO-B (1.0 µM); for SI = IC50 of MAO-A/IC50 of MAO-B: selectivity for MAO-B over MAO-A
# T3 sequence (P27338 1-520): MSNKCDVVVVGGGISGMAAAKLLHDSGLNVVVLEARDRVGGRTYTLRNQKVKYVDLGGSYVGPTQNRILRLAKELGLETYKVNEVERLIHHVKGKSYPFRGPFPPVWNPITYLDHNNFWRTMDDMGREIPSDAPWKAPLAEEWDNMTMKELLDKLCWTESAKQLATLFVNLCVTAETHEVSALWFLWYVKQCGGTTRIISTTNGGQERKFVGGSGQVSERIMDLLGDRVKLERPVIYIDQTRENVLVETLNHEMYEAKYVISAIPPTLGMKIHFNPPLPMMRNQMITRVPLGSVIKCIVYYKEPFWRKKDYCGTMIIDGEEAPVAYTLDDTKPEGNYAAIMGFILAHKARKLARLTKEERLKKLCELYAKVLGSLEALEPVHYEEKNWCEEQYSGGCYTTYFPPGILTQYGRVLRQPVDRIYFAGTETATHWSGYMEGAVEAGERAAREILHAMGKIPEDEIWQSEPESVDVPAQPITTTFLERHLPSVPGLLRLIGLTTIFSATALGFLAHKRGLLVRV
# MAO-B [6] = biological target: T3, MAO-B; assay: Kinetics of MAO-B inhibition (Lineweaver-Burk and secondary plots); assay type: biochemical
# Method: as §1
# MAO-B [7] = biological target: T3, MAO-B; assay: Reversibility of MAO-B inhibition by dialysis; assay type: biochemical; conditions: for MAO-B residual activity, dialysed (AD): after 6 h dialysis
# Method: Figure 6. […] For recovery experiments, preincubated enzyme mixtures were dialysed as described in the text.
# Inhibition types (reversible or irreversible) were determined by dialysis, as previously described^51,52, but by using 0.06 mM kynuramine and 0.3 mM benzylamine. For the experiment of AChE, 0.5 mM ATCI was used. […] Residual activities were calculated using the measured activities of undialyzed (AU) and dialysed (AD) solutions and the activities of untreated controls (i.e. without inhibitor).
Compound,Papp (in vitro; PAMPA),"Prediction (BBB permeation class) (in vitro; PAMPA-BBB, class from Pe)",IC50 (MAO-B [5]),remaining activity at 1 µM (MAO-B [5]),SI = IC50 of MAO-A/IC50 of MAO-B (MAO-B [5]),remaining activity at 10 µM (BChE),"remaining activity at 10 µM (recombinant human MAO-A; inhibitor 10 µM, mean ± SE)",IC50 (recombinant human MAO-A; mean ± SE),also measured
"CCn1cc(C(=O)O)c(=O)c2cc(F)c(N3CCNC(C)C3)c(F)c21 (stereo not shown) [Lomefloxacin, reference compound]",1.26 ± 0.01 ×10⁻⁶ cm/s,CNS- (CNS- (low): Pe (10^−6 cm s^−1) <2.00),–,–,–,–,–,–,–
"NCCc1ccc(O)c(O)c1 [Dopamine, reference compound]",–,–,–,–,–,–,–,–,Prediction (BBB permeation class) (in vitro; PAMPA): CNS- (key: CNS+ (high): Pe (10^−6 cm s^−1) > 4.00; CNS- (low): Pe (10^−6 cm s^−1) <2.00; CNS± (uncertain): Pe (10^−6 cm s^−1) from 4.00 to 2.00); Bibliography Pe (×10^−6 cm s^−1) [1]: 0.2 ×10^−6 cm s^−1
CN(C)c1ccc(/C=C/C(=O)c2ccc(N3CCOCC3)cc2)cc1 [MO5],14.4 ± 0.81 ×10⁻⁶ cm/s,CNS+ (CNS+ (high): Pe (10^−6 cm s^−1) > 4.00),–,–,–,–,–,–,"BBB permeation (in vitro; PAMPA-BBB): crossed the blood–brain barrier; IC50 in normal VERO cells (normal VERO cells; MTT assay): 185.44 µg/mL; Toxicity to normal VERO cells (normal VERO cells; MTT assay): non-toxic; Reversibility of AChE inhibition (AChE [2]): reversible inhibitors; AChE residual activity, dialysed (AD) (AChE [2]): 79.2%; AChE residual activity, undialyzed (AU) (AChE [2]): 35.8%; IC50 (AChE [3]): 6.1 ± 0.0048 µM; Residual activities (%) AChE (10 µM) (AChE [3]; inhibitor 10 µM): 34.5 ± 9.51%; Type of AChE inhibition (AChE [4]): reversibly competitively inhibited; ROS levels in H2O2-treated Hela cells (Hela cells): significantly lower ROS levels than MO9; Residual activities (%) BChE (10 µM) (BChE; inhibitor 10 µM, mean ± SE): 60.86 ± 1.07%; Residual activities (%) MAO-A (10 µM) (recombinant human MAO-A; inhibitor 10 µM, mean ± SE): 88.1 ± 3.43%"
"CN1C(C(=O)Nc2ccccn2)=C(O)c2ccccc2S1(=O)=O [Piroxicam, reference compound]",2.35 ± 0.3 ×10⁻⁶ cm/s,CNS+/-,–,–,–,–,–,–,Bibliography Pe (×10^−6 cm s^−1) [1]: 2.5 ×10^−6 cm s^−1
O=C(/C=C/c1ccc(O)cc1)c1ccc(N2CCOCC2)cc1 [MO2],–,–,0.7 ± 0.23 µM,54.5 ± 5.28%,> 57.1,63.5 ± 3.3%,93.8 ± 1.34%,> 40 µM,–
CCc1ccc(/C=C/C(=O)c2ccc(N3CCOCC3)cc2)cc1 [MO6],–,–,0.64 ± 0.04 µM,64.1 ± 1.37%,13.6,70.96 ± 0.36%,12.3 ± 1.58%,8.7 ± 1.32 µM,–
O=C(/C=C/c1ccccc1)c1ccc(N2CCOCC2)cc1 [MO1],16.34 ± 0.16 ×10⁻⁶ cm/s,CNS+ (CNS+ (high): Pe (10^−6 cm s^−1) > 4.00),–,38.1 ± 9.5%,–,62.9 ± 2.97%,–,–,"BBB permeation (in vitro; PAMPA-BBB): crossed the blood–brain barrier; IC50 (normal VERO cells): 195 µg/mL; Toxicity to normal VERO cells (normal VERO cells; MTT assay): non-toxic; IC50 (MAO-B [5]; read-out: IC50 (µM) MAO-B, mean ± SE): 0.03 ± 0.062 µM; IC50 (AChE [3]): 16.1 ± 2.24 µM; Type of MAO-B inhibition (MAO-B [6]): reversible mixed-type inhibitor; ROS levels in H2O2-treated Hela cells (Hela cells): significantly lower ROS levels than MO9; Colony formation induced by H2O2 (Hela cells; Hela cells): markedly reduced; Reversibility of MAO-B inhibition (MAO-B [7]; dialysis): reversible inhibitor; MAO-B residual activity, dialysed (AD) (MAO-B [7]; inhibitor ~2 × IC50): 77.1%; remaining activity at 10 µM (recombinant human MAO-A): 94.2 ± 0.62%"
O=C(/C=C/c1ccc(Cl)cc1)c1ccc(N2CCOCC2)cc1 [MO8],–,–,0.32 ± 0.16 µM,34.6 ± 5.44%,>125.0,74.61 ± 0.73%,83.7 ± 4.02%,> 40 µM,–
O=C(/C=C/c1ccc(Br)cc1)c1ccc(N2CCOCC2)cc1 [MO9],14.61 ± 0.08 ×10⁻⁶ cm/s,CNS+ (CNS+ (high): Pe (10^−6 cm s^−1) > 4.00),0.36 ± 0.16 µM,51.3 ± 2.42%,>111.1,70.2 ± 5.5%,79.8 ± 1.54%,> 40 µM,"BBB permeation (in vitro; PAMPA-BBB): crossed the blood–brain barrier; IC50 (normal VERO cells): 188 µg/mL; Toxicity to normal VERO cells (normal VERO cells; MTT assay): non-toxic; Reversibility of AChE inhibition (AChE [2]): reversible inhibitors; AChE residual activity, dialysed (AD) (AChE [2]): 80.7%; AChE residual activity, undialyzed (AU) (AChE [2]): 33.8%; Type of AChE inhibition (AChE [4]): reversibly noncompetitively inhibited; also recorded: non-competitively"
"NCCNC(=O)c1ccc(Cl)cn1 [Lazabemide, reference compound]",–,–,–,–,–,–,–,–,"MAO-B residual activity, dialysed (AD) (MAO-B [7]; inhibitor ~2 × IC50): 90.0%; MAO-B residual activity, undialyzed (AU) (MAO-B [7]; inhibitor ~2 × IC50, before dialysis): 38.8%"
Cc1ccc(/C=C/C(=O)c2ccc(N3CCOCC3)cc2)cc1 [MO4],–,–,0.33 ± 0.03 µM,49 ± 1.45%,78.2,80.3 ± 6.43%,70.2 ± 1.24%,25.8 ± 1.58 µM,–
COc1ccc(/C=C/C(=O)c2ccc(N3CCOCC3)cc2)cc1 [MO3],–,–,1.01 ± 0.08 µM,79.9 ± 5.28%,>39.6,56.8 ± 2.97%,91 ± 3.17%,> 40 µM,–
O=C(/C=C/c1ccc([N+](=O)[O-])cc1)c1ccc(N2CCOCC2)cc1 [MO7],–,–,0.25 ± 0.05 µM,26.1 ± 5.44%,28.4,70.2 ± 4.76%,–,7.1 ± 0.41 µM,–

# From PMC7808749, “Morpholine-based chalcones as dual-acting monoamine oxidase-B and acetylcholinesterase inhibitors: synthesis and biochemical investigations” (Journal of Enzyme Inhibition and Medicinal Chemistry, 2021)
